Measurements as given in US9162979B2, “1,5-Diary1-2-alkylpyrrole-3-substituted nitro esters, selective COX-2 inhibitors and nitric oxide donors” (ROTTAPHARM BIOTECH S.R.L., priority 2010, dated 2015).

Tests used:
[1] = system: isolated rings of thoracic aorta; experiment: Evaluation of release of NO: vasorelaxing activity on endothelium-denuded aortic rings contracted with KCl; parameters: species or system rat; key to NO release properties Emax (maximum vasorelaxing effect) / NO release properties pIC50 (vasorelaxing potency): S.E: Scarcely Effective: it is not possible to detect NO release comparable to the other compounds mentioned here; details: for IC50 / Emax: Rattus norvegicus; for IC50 / NO release properties pIC50 (vasorelaxing potency): concentration reducing contractile tone induced by 20 mM KCl by half; for IC50: read-out: NO release properties pIC50 (vasorelaxing potency) (converted); for Emax / NO release properties Emax (maximum vasorelaxing effect): relative to contractile tone induced by 20 mM KCl, 1 nM-10 μM; for Emax: read-out: NO release properties Emax (maximum vasorelaxing effect)
Description: The activity of the compounds was evaluated on isolated rings of thoracic aorta of normotensive male Wistar rats (250-350 g). After light anaesthesia with ether, the rats were sacrificed by cervical dislocation and exsanguination. The aortas were immediately excised, extraneous tissues were removed and the endothelial layer was removed by gently rubbing the surface with a hypodermic needle. Rings of aorta with a width of 5 mm were suspended, with a preload of 2 g, in 20-ml organ baths, containing a solution of “Tyrode” (composition of the saline solution in mM: NaCl 136.8; KCl 2.95; CaCl2 1.80; MgSO4 1.05; NaH2PO4 0.41; NaHCO3 11.9; glucose 5.5), thermostatically controlled at 37° C. and kept in an atmosphere of O2 (95%) and CO2 (5%). […] were recorded by means of an isometric transducer (FTO3 Erba), connected to a microdynamometer (Buxco Electronics).
60 minutes after preparation, removal of the endothelium was confirmed by acetylcholine (ACH) (10 μM) treatment of the vascular rings pre-contracted with KCl (20 mM). Relaxation of less than 10% of the contraction induced by KCl was considered as representative of acceptable removal of the endothelial layer, whereas organs displaying relaxation ≧10% were discarded. 40 minutes after confirmation of complete removal of the endothelium, the aortas were contracted by treatment with a single dose of KCl (20 mM) and after the contraction reached a stable plateau, increasing cumulative concentrations (with progressive increments of 3 times) of the test compounds (1 nM-10 μM) were added. It was found from preliminary experiments that the contraction induced by KCl (20 mM) remained stable in a tonic state for at least 40 minutes. The same experiments were performed in the presence of a well-known inhibitor of guanylate cyclase: ODQ 1 μM, which was incubated in aorta preparations after confirmation of removal of the endothelium.
Analysis of the results. The vasorelaxing activity was evaluated as a percentage (%) relative to the contractile tone induced by 20 mM KCl. The pharmacodynamic efficacy parameter (Emax) corresponds to the maximum vasorelaxing effect induced by the molecule tested, expressed as percentage relative to the contractile tone induced by 20 mM KCl. When the limit concentration of 10 μM (the highest concentration administered) of the test compounds has not reached the maximum effect, the efficacy parameter (Emax) corresponds to the vasorelaxing effect induced by the limit concentration (expressed as percentage relative to the contractile tone induced by 20 mM KCl). The pharmacodynamic parameter of potency of the compounds was expressed as pIC50 calculated as the negative logarithm of the molar concentration of test compound that reduces the contractile tone induced by 20 mM KCl by half. […] The parameters of efficacy and potency were expressed as mean±standard error, for 5-10 experiments. The experimental data were analysed by the program GraphPad Prism 3.0.

COX-2 = COX-2 (Mus musculus (Mouse), UniProt Q05769); experiment: Evaluation of COX-2 activity: PGE2 production in LPS-stimulated J774 cells; assay type: cell-based, murine; details: J774 cells stimulated 24 hours with LPS 10 μg/mL; PGE2 by radio-immunological assay; read-out: Cyclooxygenase inhibition COX-2 IC50
Description: The murine monocyte/macrophage cell line J774 is grown in Dulbecco's modified Eagle's medium (DMEM), enriched with glutamine (2 mM), HEPES (25 mM), penicillin (100 u/mL), streptomycin (100 μg/mL), 10% of fetal bovine serum (FBS) and 1.2% of sodium pyruvate. […] Just before the experiments, the culture medium is replaced with fresh medium without FBS to avoid interference during the radio-immunological phase and the cells are stimulated as described below.
The supernatants are collected for evaluating, by means of radio-immunological assays, the amount of PGE2 produced.
In each group of experiments, wells were used in triplicate for the different treatment conditions. […] The data were evaluated using the sigmoidal dose-response equation (variable slope) (GraphPad software). IC50 and the 95% precision intervals were calculated with the program GraphPad Instat (GraphPad software).

Sequence of COX-2 (Q05769 18-604): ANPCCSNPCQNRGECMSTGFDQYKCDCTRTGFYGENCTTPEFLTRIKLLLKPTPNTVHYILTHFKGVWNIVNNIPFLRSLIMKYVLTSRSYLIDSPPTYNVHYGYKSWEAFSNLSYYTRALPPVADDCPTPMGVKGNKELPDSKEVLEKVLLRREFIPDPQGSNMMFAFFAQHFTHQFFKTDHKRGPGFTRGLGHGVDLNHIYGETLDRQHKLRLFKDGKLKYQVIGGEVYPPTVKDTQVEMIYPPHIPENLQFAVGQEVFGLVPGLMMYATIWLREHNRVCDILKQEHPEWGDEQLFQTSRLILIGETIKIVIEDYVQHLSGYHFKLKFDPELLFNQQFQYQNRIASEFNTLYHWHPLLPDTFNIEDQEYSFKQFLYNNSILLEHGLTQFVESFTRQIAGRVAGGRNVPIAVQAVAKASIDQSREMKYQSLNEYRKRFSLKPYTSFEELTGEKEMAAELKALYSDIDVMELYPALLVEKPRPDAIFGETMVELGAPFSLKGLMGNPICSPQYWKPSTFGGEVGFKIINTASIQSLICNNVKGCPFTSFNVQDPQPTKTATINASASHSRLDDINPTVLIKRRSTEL

Structure (SMILES)	Emax [1] [%]	IC50 (COX-2) [nM]	also measured
Cc1c(CC(=O)OCC(CO[N+](=O)[O-])O[N+](=O)[O-])cc(-c2ccc(S(C)(=O)=O)cc2)n1-c1ccccc1 (racemic) [Example 15, (R,S)-2,3-bis(Nitrooxy)propyl-2-[1-phenyl-2-methyl-5-(4-methylsulphonylphenyl)-1H-pyrrol-3-yl]acetate]	57 ± 6	–	IC50 [1]: 1120 nM
Cc1c(CC(=O)NC(CCO)C(=O)O)cc(-c2ccc(S(C)(=O)=O)cc2)n1-c1ccc(F)cc1 (racemic) [Example 32-II, (R,S)-4-(Hydroxy)-2-[[1-(4-fluorophenyl)-2-methyl-5-(4-methylsulphonylphenyl)-1H-pyrrol-3-yl]acetamido]butanoic Acid]	–	86	–
Cc1c(CC(=O)NC(CCO[N+](=O)[O-])C(=O)O)cc(-c2ccc(S(C)(=O)=O)cc2)n1-c1cccc(F)c1 (racemic) [Example 33, (R,S)-4-(Nitroxy)-2-[[1-(3-fluorophenyl)-2-methyl-5-(4-methylsulphonylphenyl)-1H-pyrrol-3-yl]acetamido]butanoic Acid]	23 ± 2	–	–
Cc1c(CC(=O)NC(CO[N+](=O)[O-])C(=O)O)cc(-c2ccc(S(C)(=O)=O)cc2)n1-c1ccc(F)cc1 (stereo in doubt) [Example 29, (S)-3-(Nitroxy)-2-[[1-(4-fluorophenyl)-2-methyl-5-(4-methylsulphonylphenyl)-1H-pyrrol-3-yl]acetamido]propanoic Acid]	–	310	NO release properties pIC50 (vasorelaxing potency) [1]: S.E; NO release properties Emax (maximum vasorelaxing effect) [1]: S.E
Cc1c(CC(=O)NC(CO)C(=O)O)cc(-c2ccc(S(C)(=O)=O)cc2)n1-c1ccc(F)cc1 (stereo in doubt) [Example 29-II, (S)-3-(Hydroxy)-2-[[1-(4-fluorophenyl)-2-methyl-5-(4-methylsulphonylphenyl)-1H-pyrrol-3-yl]acetamido]propanoic Acid]	–	160	–
Cc1c(CC(=O)NC(CO[N+](=O)[O-])C(=O)O)cc(-c2ccc(S(C)(=O)=O)cc2)n1-c1cccc(F)c1 (stereo in doubt) [Example 30, (S)-3-(Nitroxy)-2-[1-(3-fluorophenyl)-2-methyl-5-(4-methylsulphonylphenyl)-1H-pyrrol-3-yl]acetamido]propanoic Acid]	–	140	NO release properties pIC50 (vasorelaxing potency) [1]: S.E; NO release properties Emax (maximum vasorelaxing effect) [1]: S.E
Cc1c(CC(=O)NC(CO)C(=O)O)cc(-c2ccc(S(C)(=O)=O)cc2)n1-c1cccc(F)c1 (stereo in doubt) [Example 30-II, (S)-3-(Hydroxy)-2-[1-(3-fluorophenyl)-2-methyl-5-(4-methylsulphonylphenyl)-1H-pyrrol-3-yl]acetamido]propanoic Acid]	–	57	–
Cc1c(CC(=O)OCCO[N+](=O)[O-])cc(-c2ccc(S(C)(=O)=O)cc2)n1-c1ccccc1 [Example 1, 2-(Nitrooxy)ethyl-2-[1-phenyl-2-methyl-5-(4-methylsulphonylphenyl)-1H-pyrrol-3-yl]acetate]	66 ± 3	43	IC50 [1]: 1410 nM
Cc1c(CC(=O)OCCO)cc(-c2ccc(S(C)(=O)=O)cc2)n1-c1ccccc1 [Example 1-II]	–	27	–
CSc1ccc(-n2c(-c3ccc(S(C)(=O)=O)cc3)cc(CC(=O)OCCO[N+](=O)[O-])c2C)cc1 [Example 5, 2-(Nitroxy)ethyl-[1-(4-methylthiophenyl)-2-methyl-5-(4-methylsulphonylphenyl)-1H-pyrrol-3-yl]-acetate]	64.9 ± 1.4	–	IC50 [1]: 457 nM
CSc1ccc(-n2c(-c3ccc(S(C)(=O)=O)cc3)cc(CC(=O)OCCO)c2C)cc1 [Example 5-II, 2-Hydroxyethyl-[1-(4-methylthiophenyl)-2-methyl-5-(4-methylsulphonylphenyl)-1H-pyrrol-3-yl]-acetate]	–	85	–
Cc1c(CC(=O)OCCCO)cc(-c2ccc(S(C)(=O)=O)cc2)n1-c1cccc(F)c1 [Example 8-II, 3-Hydroxypropyl-[1-(3-fluorophenyl)-2-methyl-5-(4-methylsulphonylphenyl)-1H-pyrrol-3-yl]-acetate]	–	23	–
COc1ccc(-n2c(-c3ccc(S(C)(=O)=O)cc3)cc(CC(=O)OCCCO)c2C)cc1 [Example 9-II, 3-Hydroxypropyl-[1-(4-methoxyphenyl)-2-methyl-5-(4-methylsulphonylphenyl)-1H-pyrrol-3-yl]-acetate]	–	700	–
CSc1ccc(-n2c(-c3ccc(S(C)(=O)=O)cc3)cc(CC(=O)OCCCO[N+](=O)[O-])c2C)cc1 [Example 10, 3-(Nitroxy)propyl-[1-(4-methylthiophenyl)-2-methyl-5-(4-methylsulphonylphenyl)-1H-pyrrol-3-yl]-acetate]	41 ± 8	27	–
CSc1ccc(-n2c(-c3ccc(S(C)(=O)=O)cc3)cc(CC(=O)OCCCO)c2C)cc1 [Example 10-II, 3-(Hydroxy)propyl-[1-(4-methylthiophenyl)-2-methyl-5-(4-methylsulphonylphenyl)-1H-pyrrol-3-yl]-acetate]	–	260	–
Cc1c(CC(=O)OCCCCO)cc(-c2ccc(S(C)(=O)=O)cc2)n1-c1cccc(F)c1 [Example 12-II, 4-(hydroxy)butyl-[1-(3-fluorophenyl)-2-methyl-5-(4-methylsulphonylphenyl)-1H-pyrrol-3-yl]-acetate]	–	110	–
CSc1ccc(-n2c(-c3ccc(S(C)(=O)=O)cc3)cc(CC(=O)OCCCCO[N+](=O)[O-])c2C)cc1 [Example 14, 4-(Nitrooxy)butyl-2-[1-(4-thiomethylphenyl)-2-methyl-5-(4-methylsulphonylphenyl)-1H-pyrrol-3-yl]acetate]	55 ± 15	220	vasorelaxing effect in the presence of ODQ ([1]; ODQ 1 μM, guanylate cyclase inhibitor): not fully antagonized by ODQ; IC50 [1]: 5010 nM
CSc1ccc(-n2c(-c3ccc(S(C)(=O)=O)cc3)cc(CC(=O)OCCCCO)c2C)cc1 [Example 14-II, 4-(Hydroxy)butyl-2-[1-(4-thiomethylphenyl)-2-methyl-5-(4-methylsulphonylphenyl)-1H-pyrrol-3-yl]acetate]	–	55	–
Cc1c(CC(=O)NCCO)cc(-c2ccc(S(C)(=O)=O)cc2)n1-c1cccc(F)c1 [Example 24-II, N-[(2-hydroxy)ethyl]-2-[1-(3-fluorophenyl)-2-methyl-5-(4-methylsulphonylphenyl)-1H-pyrrol-3-yl]acetamide]	–	290	–
Cc1c(CCOCCO[N+](=O)[O-])cc(-c2ccc(S(C)(=O)=O)cc2)n1-c1ccccc1 [Example 36, 2-[2-[1-Phenyl-2-methyl-5-(4-methylsulphonylphenyl)-1H-pyrrol-3-yl]ethoxy]ethyl Nitrate]	65	17	IC50 [1]: 6030 nM
Cc1c(CCOCCCO[N+](=O)[O-])cc(-c2ccc(S(C)(=O)=O)cc2)n1-c1ccccc1 [Example 40, 3-[2-[2-(1-Phenyl-2-methyl-5-(4-methylsulphonylphenyl)-1H-pyrrol-3-yl)ethoxy]propyl Nitrate]	48.2 ± 0.5	15	–
Cc1c(CCOCCCO)cc(-c2ccc(S(C)(=O)=O)cc2)n1-c1cccc(F)c1 [Example 42-II, 3-[2-(1-(3-Fluorophenyl)-2-methyl-5-(4-methylsulphonylphenyl)-1H-pyrrol-3-yl)ethoxy]propanol]	–	1500	–
